Source: PubChem BioAssay AID330 (DTP/NCI, 2004)
“And” between values parts separate entries of the source, which are not always exact repeats. Equal values may be shown once. Toxic doses and inconclusive results are not listed. Rule for the calls: active = survival T/C of 150% or more; inactive = T/C below 125% in these data.

System: P388 leukemia ip, CD2F1 mice, survival T/C
Assay: NCI In Vivo Anticancer Drug Screen. Data for tumor model P388 Leukemia (intraperitoneal) in CD2F1 (CDF1) mice
Conditions: endpoint: median survival time, higher = longer survival
Summary of the method: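 Mice carrying the transplanted tumor received test compound or vehicle. Survival was recorded in each group, and the value is the treated-group measurement divided by that of the vehicle-treated control group.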

[1] = dose: 60.0 mg/kg/injection, schedule: Q01DX005 (ip), vehicle: Klucel (hydroxypropylcellulose) (HPC)
[2] = dose: 120.0 mg/kg/injection, schedule: Q01DX005 (ip), vehicle: Klucel (hydroxypropylcellulose) (HPC)
[3] = dose: 240.0 mg/kg/injection, schedule: Q01DX005 (ip), vehicle: Klucel (hydroxypropylcellulose) (HPC)
[4] = dose: 100.0 mg/kg/injection, schedule: Q01DX001 (ip), vehicle: Klucel (hydroxypropylcellulose) (HPC)
[5] = dose: 200.0 mg/kg/injection, schedule: Q01DX001 (ip), vehicle: Klucel (hydroxypropylcellulose) (HPC)
[6] = dose: 400.0 mg/kg/injection, schedule: Q01DX001 (ip), vehicle: Klucel (hydroxypropylcellulose) (HPC)
[7] = dose: 50.0 mg/kg/injection, schedule: Q01DX009 (ip), vehicle: saline
[8] = dose: 100.0 mg/kg/injection, schedule: Q01DX009 (ip), vehicle: saline
[9] = dose: 25.0 mg/kg/injection, schedule: Q01DX009 (ip), vehicle: saline with Tween-80
[10] = dose: 50.0 mg/kg/injection, schedule: Q01DX009 (ip), vehicle: saline with Tween-80
[11] = dose: 100.0 mg/kg/injection, schedule: Q04DX003 (ip), vehicle: Klucel (hydroxypropylcellulose) (HPC)
[12] = dose: 200.0 mg/kg/injection, schedule: Q04DX003 (ip), vehicle: Klucel (hydroxypropylcellulose) (HPC)
[13] = dose: 400.0 mg/kg/injection, schedule: Q04DX003 (ip), vehicle: Klucel (hydroxypropylcellulose) (HPC)
[14] = dose: 100.0 mg/kg/injection, schedule: Q01DX001 (ip), vehicle: saline with Tween-80
[15] = dose: 200.0 mg/kg/injection, schedule: Q01DX001 (ip), vehicle: saline with Tween-80
[16] = dose: 400.0 mg/kg/injection, schedule: Q01DX001 (ip), vehicle: saline with Tween-80
[17] = dose: 50.0 mg/kg/injection, schedule: Q01DX005 (ip), vehicle: saline with Tween-80
[18] = dose: 100.0 mg/kg/injection, schedule: Q01DX005 (ip), vehicle: saline with Tween-80
[19] = dose: 200.0 mg/kg/injection, schedule: Q01DX005 (ip), vehicle: saline with Tween-80
[20] = dose: 50.0 mg/kg/injection, schedule: Q01DX005 (ip), vehicle: Klucel (hydroxypropylcellulose) (HPC)
[21] = dose: 100.0 mg/kg/injection, schedule: Q01DX005 (ip), vehicle: Klucel (hydroxypropylcellulose) (HPC)
[22] = dose: 200.0 mg/kg/injection, schedule: Q01DX005 (ip), vehicle: Klucel (hydroxypropylcellulose) (HPC)

Measured: T/C

CCCCCCCCCCCCCCCCCCOC(=O)C(N)Cc1ccc(O)cc1 (stereo unspecified)
inactive: [1] 106 % of control | [2] 101 % of control | [3] 105 % of control

Nn1c(-c2cnns2)n[nH]c1=S
inactive: [4] 100 % of control | [5] 100 % of control | [6] 105 % of control

CCCCCCCCCCCC(=O)N(C)CCOC(=O)C(C)(C)C
inactive: [7] 106 % of control | [8] 98 % of control | dose: 200.0 mg/kg/injection, schedule: Q01DX009 (ip), vehicle: saline 116 % of control

O=C(CC(=O)C(F)(F)F)c1cccs1
inactive: dose: 6.25 mg/kg/injection, schedule: Q01DX009 (ip), vehicle: saline with Tween-80 100 % of control | dose: 12.5 mg/kg/injection, schedule: Q01DX009 (ip), vehicle: saline with Tween-80 100 % of control and 104 % of control | [9] 103 % of control and 110 % of control | [10] 100 % of control and 111 % of control and 114 % of control

O=C1c2ccccc2C(=O)N1C(=NCc1ccccc1)c1ccccc1
inactive: [11] 104 % of control | [12] 104 % of control | [13] 109 % of control

c1cnc2c(c1)-n1cccc1C1(CCCCC1)NN2
inactive: [14] 108 % of control | [15] 93 % of control | [16] 93 % of control

COCC#CCN(C)C
inactive: dose: 60.0 mg/kg/injection, schedule: Q01DX005 (ip), vehicle: saline 95 % of control | dose: 120.0 mg/kg/injection, schedule: Q01DX005 (ip), vehicle: saline 99 % of control | dose: 240.0 mg/kg/injection, schedule: Q01DX005 (ip), vehicle: saline 95 % of control

O=C1C=CC(=Nc2ccc3c(c2)C(=O)c2ccccc2-3)O1
inactive: [17] 111 % of control | [18] 115 % of control

N#Cc1c(-c2ccc(Cl)cc2)c(-c2ccc(Cl)cc2)nn(CCOC(=O)CCC(=O)OCCn2nc(-c3ccc(Cl)cc3)c(-c3ccc(Cl)cc3)c(C#N)c2=O)c1=O
inactive: dose: 25.0 mg/kg/injection, schedule: Q04DX002 (ip), vehicle: distilled water + Tween-80 95 % of control | dose: 50.0 mg/kg/injection, schedule: Q04DX002 (ip), vehicle: distilled water + Tween-80 89 % of control | dose: 100.0 mg/kg/injection, schedule: Q04DX002 (ip), vehicle: distilled water + Tween-80 91 % of control

COc1ccc(/C=C\C(=O)c2ccc(C(=O)/C=C/c3ccc(OC)cc3OC)cc2)c(OC)c1
inactive: dose: 12.5 mg/kg/injection, schedule: Q04DX003 (ip), vehicle: saline with Tween-80 100 % of control | dose: 25.0 mg/kg/injection, schedule: Q04DX003 (ip), vehicle: saline with Tween-80 102 % of control | dose: 50.0 mg/kg/injection, schedule: Q04DX003 (ip), vehicle: saline with Tween-80 92 % of control

CCOC(=O)c1c(-c2ccccc2)csc1NC(=O)CN1CCCCC1
inactive: [17] 98 % of control | [18] 114 % of control | [19] 113 % of control

COc1cccc(/C=C/c2cc3c(cc2Br)OCO3)c1
inactive: [20] 102 % of control | [21] 108 % of control | [22] 101 % of control

c1ccc([Si]2(c3ccccc3)O[Si](c3ccccc3)(c3ccccc3)O[Si](c3ccccc3)(c3ccccc3)O[Si](c3ccccc3)(c3ccccc3)O2)cc1
inactive: [9] 95 % of control and 97 % of control | [10] 100 % of control and 92 % of control and 93 % of control | dose: 100.0 mg/kg/injection, schedule: Q01DX009 (ip), vehicle: saline with Tween-80 120 % of control and 94 % of control and 95 % of control | dose: 200.0 mg/kg/injection, schedule: Q01DX009 (ip), vehicle: saline with Tween-80 90 % of control (2×) and 93 % of control

Cc1cc(C(=O)O)c(C)c2c1sc1ccccc12
inactive: dose: 60.0 mg/kg/injection, schedule: Q01DX005 (ip), vehicle: saline with Tween-80 101 % of control | dose: 120.0 mg/kg/injection, schedule: Q01DX005 (ip), vehicle: saline with Tween-80 114 % of control

COc1ccc(CSC(=S)Nc2ccc(F)c(C)c2)cc1
inactive: dose: 50.0 mg/kg/injection, schedule: Q01DX009 (ip), vehicle: suspension in saline 99 % of control | dose: 100.0 mg/kg/injection, schedule: Q01DX009 (ip), vehicle: suspension in saline 99 % of control

NC(=O)N1CCC2c3ccccc3NC(=S)N21 (stereo unspecified)
inactive: [14] 102 % of control | [15] 99 % of control | [16] 99 % of control

CNc1ccccc1Sc1cnc(N)nc1C
inactive: [1] 94 % of control | [2] 91 % of control | [3] 90 % of control

O=C(O)C1C=CC2OC2C1C(=O)O (stereo unspecified)
inactive: [4] 87 % of control | [5] 92 % of control | [6] 93 % of control

CC(=O)Nc1cc2c(=O)[nH]cnc2c([N+](=O)[O-])c1N(C)[N+](=O)[O-]
inactive: dose: 5.0 mg/kg/injection, schedule: Q01DX005 (ip), vehicle: other 101 % of control | dose: 10.0 mg/kg/injection, schedule: Q01DX005 (ip), vehicle: other 117 % of control | dose: 20.0 mg/kg/injection, schedule: Q01DX005 (ip), vehicle: other 109 % of control | dose: 40.0 mg/kg/injection, schedule: Q01DX005 (ip), vehicle: other 102 % of control

COc1cc(/C=C/C=C/c2ccccc2)oc(=O)c1
inactive: [11] 91 % of control | [12] 90 % of control | [13] 92 % of control

O=C1CC(c2ccccc2)C(=O)N1CN1CCOCC1 (stereo unspecified)
inactive: [20] 110 % of control | [21] 97 % of control | [22] 97 % of control

Nc1cc(-c2ccc(Br)cc2)nn1-c1nc(-c2ccc(Br)cc2)cs1
inactive: dose: 25.0 mg/kg/injection, schedule: Q01DX009 (ip), vehicle: Klucel (hydroxypropylcellulose) (HPC) 87 % of control | dose: 50.0 mg/kg/injection, schedule: Q01DX009 (ip), vehicle: Klucel (hydroxypropylcellulose) (HPC) 86 % of control | dose: 100.0 mg/kg/injection, schedule: Q01DX009 (ip), vehicle: Klucel (hydroxypropylcellulose) (HPC) 87 % of control | dose: 200.0 mg/kg/injection, schedule: Q01DX009 (ip), vehicle: Klucel (hydroxypropylcellulose) (HPC) 89 % of control

Oc1c(Br)cc(Br)cc1/C=N/NC(=S)N/N=C/c1cc(Br)cc(Br)c1O
inactive: dose: 12.5 mg/kg/injection, schedule: Q01DX009 (ip), vehicle: distilled water + Tween-80 97 % of control | dose: 25.0 mg/kg/injection, schedule: Q01DX009 (ip), vehicle: distilled water + Tween-80 103 % of control and 108 % of control | dose: 50.0 mg/kg/injection, schedule: Q01DX009 (ip), vehicle: distilled water + Tween-80 118 % of control

Cn1c(=O)n2n(c1=O)C1(CCO)CCC2(CCO)CC1
inactive: [17] 99 % of control | [18] 103 % of control | [19] 100 % of control

CC(C)(N)CNc1ccccc1
inactive: dose: 25.0 mg/kg/injection, schedule: Q01DX009 (ip), vehicle: saline 111 % of control | [7] 117 % of control | [8] 120 % of control
